Laboratory results taken from PubChem BioAssay (NCI).
Values joined by “and” are separate entries in the source; they are usually repeats but may differ in a detail not shown here. Identical values can stand only once.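 Values below derive from 48-hour exposures of cells grown in 96-well plates, with endpoints linearly interpolated between the two concentrations bracketing the appropriate inhibition level. GI50 is the concentration that inhibits growth by half. At the TGI there is no net growth.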

Legend:
Assay in all cases: growth of human tumour cells (NCI), 48 h
DLD-1 colon = tested on: DLD-1 colon
HCT-116 colon = tested on: HCT-116 colon
HOP-62 NSCLC = tested on: HOP-62 NSCLC
HOP-92 NSCLC = tested on: HOP-92 NSCLC
IGROV1 ovarian = tested on: IGROV1 ovarian
NCI-H23 lung = tested on: NCI-H23 lung
NCI-H522 lung = tested on: NCI-H522 lung
SNB-78 CNS = tested on: SNB-78 CNS
SW-620 colon = tested on: SW-620 colon
DU-145 prostate = tested on: DU-145 prostate

Row | SMILES | TGI (DLD-1 colon) | TGI (HCT-116 colon) [µM] | TGI (HOP-62 NSCLC) [µM] | TGI (HOP-92 NSCLC) [µM] | TGI (IGROV1 ovarian) | TGI (NCI-H23 lung) | TGI (NCI-H522 lung) | TGI (SNB-78 CNS) | TGI (SW-620 colon) [µM] | GI50 (DLD-1 colon) [µM] | GI50 (IGROV1 ovarian) [µM] | GI50 (SW-620 colon) [µM] | GI50 (NCI-H23 lung) [µM] | GI50 (NCI-H522 lung) [µM] | GI50 (SNB-78 CNS) [µM] | GI50 (HCT-116 colon) [µM] | GI50 (HOP-62 NSCLC) [µM] | GI50 (HOP-92 NSCLC) [µM] | GI50 (DU-145 prostate) [µM] | TGI (DU-145 prostate) [µM]
1 | COc1cccc(/C=C/C(=O)c2sc(C(N)=S)nc2C)c1O | > 68.5 µM | > 92.5 | > 100 | > 100 | > 100 µM | > 100 µM | > 74 µM | > 100 µM | 86.3 | – | – | – | – | – | – | – | – | – | – | –
2 | Cc1ccc(S(=O)(=O)N2CCN(C=S)CC2)cc1 | > 100 µM | > 100 | > 100 | – | > 100 µM | > 100 µM | > 100 µM | > 100 µM | > 100 | – | – | – | – | – | – | – | – | – | – | –
3 | CN(C)CCC(CCN(C)C)=NO | > 100 µM | > 100 | > 100 | – | > 100 µM | > 100 µM | > 100 µM | > 100 µM | > 100 | – | – | – | – | – | – | – | – | – | – | –
4 | CC(=O)O[C@H]1CCN2C(=O)C=CC(OCc3ccccc3)C12 (stereo partly drawn) | > 100 µM | – | > 100 | > 100 | > 100 µM | > 100 µM | – | > 100 µM | > 100 | – | – | – | – | – | – | – | – | – | – | –
5 | CCOC(=O)C(CCC(N)=O)(CCC(=O)OC)C(=O)OCC | > 100 µM | > 100 | > 100 | > 100 | > 100 µM | > 100 µM | > 100 µM | > 100 µM | > 100 | – | – | – | – | – | – | – | – | – | – | –
6 | CCOc1ccc(/C=C/c2cc(OC)c(OC)c(OC)c2)cc1 | > 100 µM | 15.2 | 35.9 | 93.8 | > 93.8 µM | > 45.6 µM | 2.21 µM | 0.85 µM | > 100 | – | – | – | – | – | – | – | – | – | – | –
7 | O=C1C(=C([O-])c2ccccc2)C(=O)c2ccccc21.O=C1C(=C([O-])c2ccccc2)C(=O)c2ccccc21.[Mn+2] | > 100 µM | – | – | – | > 100 µM | – | – | – | > 100 | 62 | > 100 | > 100 | – | – | – | – | – | – | – | –
8 | OCC[N+]12CCCN1CCC2 | > 100 µM | > 100 | > 100 | > 100 | > 100 µM | > 100 µM | > 100 µM | > 100 µM | > 100 | – | – | – | – | – | – | – | – | – | – | –
9 | c1ccncc1 | > 100 µM | > 100 | > 100 | > 100 | > 100 µM | > 100 µM | > 100 µM | – | > 100 | – | – | – | – | – | – | – | – | – | – | –
10 | O=[N+]([O-])c1ccc(C(Cl)C(Cl)c2ccc(C(Cl)C(Cl)c3ccc([N+](=O)[O-])cc3[N+](=O)[O-])cc2)c([N+](=O)[O-])c1 (stereo not drawn) | 6.02 µM and 0.748 µM | 1.75 | 6.2 | 3.28 | 11.4 µM and 8.68 µM | 4.69 µM and 0.582 µM | 2.36 µM and 0.447 µM | > 62 µM and 52.8 µM | 1.69 | 0.251 | 0.571 | – | 0.216 | 0.183 | 0.762 | – | – | – | – | –
11 | CC1=NN(C(=O)Nc2ccc(Cl)cc2)C(=O)C2CCC(=O)N12 (stereo not drawn) | > 100 µM | > 100 | > 100 | > 100 | > 100 µM | > 100 µM | – | > 100 µM | > 100 | – | – | – | – | – | – | – | – | – | – | –
12 | Cc1ccc(/C=C(\NC(=O)c2ccccc2)c2nc3ccccc3[nH]2)cc1 | > 100 µM | > 100 | > 100 | 86.5 | > 100 µM | > 100 µM | > 100 µM | – | > 100 | – | – | – | – | – | – | – | – | – | – | –
13 | NC1CCCCC1N.O=C1C=C/C(=C(/c2ccc(O)c(Br)c2)c2ccccc2S(=O)(=O)[O-])C=C1Br.O=C1C=C/C(=C(/c2ccc(O)c(Br)c2)c2ccccc2S(=O)(=O)[O-])C=C1Br.[Pt+4] | > 100 µM | > 100 | 9.95 | > 100 | > 100 µM | > 100 µM | 22.6 µM | > 100 µM | 52.2 | 5.27 | 4.17 | 0.578 | 2.88 | 1.9 | 48.2 | 0.79 | 7.88 | > 100 | – | –
14 | N#CCC(=O)N/N=C1/C(=O)N(c2cc(Cl)ccc2Cl)C(=O)C(=O)C1c1nc2ccccc2s1 (stereo not drawn) | > 100 µM | > 100 | > 100 | 83.1 | > 100 µM | > 100 µM | > 100 µM | > 100 µM | > 100 | – | – | – | – | – | – | – | – | – | – | –
15 | O=C(C=P(c1ccccc1)(c1ccccc1)c1ccccc1)CCl | – | 1.6 | 7.93 | 0.693 | 5.75 µM | 4.83 µM | 1.64 µM | – | 2.12 | – | 1.97 | 0.579 | 0.811 | 0.396 | – | 0.416 | 2.62 | 0.142 | 1.13 | 2.38
16 | O=C1CC(c2ccccc2)Cc2nc3ccc(Br)cc3cc21 (stereo not drawn) | – | > 100 | > 100 | 46.1 | > 100 µM | > 100 µM | 20.3 µM | – | > 100 | – | 0.428 | 0.362 | 0.575 | 0.204 | – | 0.0509 | 0.526 | 0.45 | 0.209 | > 100
17 | NC(=S)N/N=C1\c2ccccc2-c2c(F)c(F)c(F)c(F)c21 | – | 3.15 | 6.72 | 19.9 | 13.8 µM | 25 µM | 1.21 µM | – | 3.66 | – | 5.81 | 1.79 | 9.79 | 0.321 | – | 1.67 | 2.71 | 6.33 | 5.39 | 17
18 | CCN(CC)CC(C)C(=O)/C=C/c1ccc(C)cc1 (stereo not drawn) | 3.16 µM | 3.16 | 33.5 | 4.84 | 4.86 µM | 19.9 µM | – | 23.1 µM | 2.96 | – | – | – | – | – | – | – | – | – | – | –
19 | Cc1cnc2oc3ccc(O)cc3c2c1-c1ccccc1 | – | > 100 | 83.4 | 38.5 | > 100 µM | > 100 µM | > 100 µM | – | > 100 | – | 47 | > 100 | 21.6 | 44.9 | – | > 100 | 27.3 | 3.34 | 62.5 | > 100
20 | CC(C)(C)CC(C)(C)c1ccc(O)c(Cc2ccc(Cl)cc2Cl)c1 | – | 3.16 | 2.72 | 2.76 | 3.12 µM | 2.89 µM | 2.7 µM | – | 2.99 | – | 1.7 | 1.64 | 1.53 | 1.37 | – | 1.66 | 1.42 | 1.39 | 1.69 | 3.05
